The test addresses T1, full-length human PKCι (Homo sapiens, UniProt P41743).
T1 construct: Recombinant, full-length human PKCι expressed in Sf21 insect cells is also commercially available; purchased; host or cells: Sf21 insect cells
T1 sequence (P41743 1-596): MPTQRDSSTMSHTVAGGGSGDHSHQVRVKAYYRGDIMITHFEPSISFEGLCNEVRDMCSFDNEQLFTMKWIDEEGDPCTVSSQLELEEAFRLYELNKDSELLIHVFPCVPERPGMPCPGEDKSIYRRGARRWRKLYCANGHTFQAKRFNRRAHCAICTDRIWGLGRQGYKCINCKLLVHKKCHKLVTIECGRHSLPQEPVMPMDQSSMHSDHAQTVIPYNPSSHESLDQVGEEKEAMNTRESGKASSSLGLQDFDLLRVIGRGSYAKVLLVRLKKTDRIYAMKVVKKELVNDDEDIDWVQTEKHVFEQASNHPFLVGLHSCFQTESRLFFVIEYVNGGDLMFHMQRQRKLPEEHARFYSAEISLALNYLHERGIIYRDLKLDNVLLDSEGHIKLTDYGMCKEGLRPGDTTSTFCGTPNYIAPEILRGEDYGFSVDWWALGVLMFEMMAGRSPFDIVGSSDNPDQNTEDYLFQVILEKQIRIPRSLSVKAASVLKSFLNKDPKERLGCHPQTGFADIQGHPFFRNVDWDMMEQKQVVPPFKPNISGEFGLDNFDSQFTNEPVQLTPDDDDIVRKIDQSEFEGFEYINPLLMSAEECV
Description: PKCι IC50 IMAP assay, full-length PKCι at 150 μM ATP. The settings on record: read-out: IC50 in IMAP assay against full length PKCi at 150 μM ATP. The test is classed as biochemical. Summed up: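 Dose-response IC50 values come from IMAP fluorescence polarisation after 60 min room-temperature turnover of 100 nM FAM peptide by ~15 pM insect-cell-expressed full-length PKCι at 150 μM ATP (5× KM^APP), normalised to no-compound and no-enzyme controls.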

From patent US9914730B2, “Azaquinazoline inhibitors of Atypical protein Kinase C” (Ignyta, Inc., priority 2012, dated 2018) come the findings set out here.

Some results are limits rather than exact numbers.

The term IC50 denotes the concentration needed to halve the response being measured.

Turning to `CN(C)C(=O)c1ccc(Nc2cc(-c3nc(N4CCNCC4)c4c(C5CC5)cncc4n3)ccn2)cc1` [Example 2003, 4-[4-(5-Cyclopropyl-4-piperazin-1-yl-pyrido[3,4-d]pyrimidin-2-yl)-pyridin-2-ylamino]-N,N-dimethyl-benzamide], the IC50 is less than 0.1 µM.
In the case of `C[C@H]1CN(c2nc(-c3ccnc4[nH]c(C(F)(F)F)cc34)nc3cncc(C4CC4)c23)CCN1` [Example 1233, 5-Cyclopropyl-4-((S)-3-methyl-piperazin-1-yl)-2-(2-trifluoromethyl-1H-pyrrolo[2,3-b]pyridin-4-yl)-pyrido[3,4-d]pyrimidine], the IC50 was less than 0.1 µM.
`Fc1cc(F)c(F)c(Nc2cc(-c3nc(N4CCNCC4)c4c(C5CCC5)cncc4n3)ccn2)n1` [Example 786, [4-(5-Cyclobutyl-4-piperazin-1-yl-pyrido[3,4-d]pyrimidin-2-yl)-pyridin-2-yl]-(3,4,6-trifluoro-pyridin-2-yl)-amine]: the 50% inhibitory concentration (IC50) was less than 0.1 µM.
As for `COc1cncc2nc(N3CCOC(COc4ccccc4)C3)nc(N3CCNCC3)c12` (stereo not shown) [Example 1004, 5-Methoxy-2-(2-phenoxymethyl-morpholin-4-yl)-4-piperazin-1-yl-pyrido[3,4-d]pyrimidine], the figure is 1 to 10 µM; as for `Cc1ccccc1-c1nccc2c(NC[C@@H](N)Cc3ccccc3)nc(-c3ccncc3)nc12` [Example 118, N-[(2S)-2-amino-3-phenylpropyl]-8-(2-methyl-phenyl)-2-(pyridin-4-yl)-pyrido[3,4-d]-pyrimidin-4-amine], 1 to 10 µM.
Take `CN1CCN(c2cccc(Nc3cc(-c4nc(N5C[C@H](O)[C@@H](O)C5)c5c(C6CC6)cncc5n4)ccn3)c2)CC1` [Example 793, (3S,4S)-1-(5-Cyclopropyl-2-{2-[3-(4-methyl-piperazin-1-yl)-phenylamino]-pyridin-4-yl}-pyrido[3,4-d]pyrimidin-4-yl)-pyrrolidine-3,4-diol]: the IC50 was in the range of 0.1 to 1 µM.
Under `c1cc(-c2nc(N3CCNCC3)c3c(C4CC4)cncc3n2)cc(NC23CC4CC(CC(C4)C2)C3)n1` [Example 285, Adamantan-1-yl-[4-(5-cyclopropyl-4-piperazin-1-yl-pyrido[3,4-d]pyrimidin-2-yl)-pyridin-2-yl]-amine] stands less than 0.1 µM; under `COc1cncc2nc(-c3ccnc(Nc4ccccc4)c3)nc(N3CCC(O)C(O)C3)c12` (single isomer, unassigned) [Example 456, (3S,4S)-1-[5-Methoxy-2-(2-phenylamino-pyridin-4-yl)-pyrido[3,4-d]pyrimidin-4-yl]-piperidine-3,4-diol or (3R,4R)-1-[5-Methoxy-2-(2-phenylamino-pyridin-4-yl)-pyrido[3,4-d]pyrimidin-4-yl]-piperidine-3,4-diol], 0.1 to 1 µM.
For `Cc1ccc(C(F)(F)F)cc1Nc1cc(-c2nc(N3CCNCC3)c3c(C4CC4)cncc3n2)ccn1` [Example 554, [4-(5-Cyclopropyl-4-piperazin-1-yl-pyrido[3,4-d]pyrimidin-2-yl)-pyridin-2-yl]-(2-methyl-5-trifluoromethyl-phenyl)-amine], the IC50 was 0.1 to 1 µM.
`Fc1cc(F)c(Nc2cc(-c3nc(N4CCNCC4)c4c(C5CC5)cncc4n3)ccn2)nc1F` [Example 680]: the IC50 is less than 0.1 µM.
For the compound `Cn1cnc2ccc(Nc3cc(-c4nc(N5CCNCC5)c5c(C6CC6)cncc5n4)ccn3)cc21` [Example 2149, [4-(5-Cyclopropyl-4-piperazin-1-yl-pyrido[3,4-d]pyrimidin-2-yl)-pyridin-2-yl]-(3-methyl-3H-benzoimidazol-5-yl)-amine], the IC50 was less than 0.1 µM.
`Fc1ccc(Nc2cc(-c3nc(N4CCNCC4)c4c(C5CC5)cncc4n3)ccn2)c(F)n1` [Example 671, [4-(5-Cyclopropyl-4-piperazin-1-yl-pyrido[3,4-d]pyrimidin-2-yl)-pyridin-2-yl]-(2,6-difluoro-pyridin-3-yl)-amine]: the half-inhibitory concentration (IC50) was less than 0.1 µM.
For `N[C@H](CNc1nc(-c2ccncc2)nc2c(Oc3ccccc3)nccc12)Cc1ccccc1` [Example 129, N-[(2S)-2-amino-3-phenylpropyl]-8-phenoxy-2-(pyridin-4-yl)pyrido[3,4-d]pyrimidin-4-amine], the IC50 was in the range of 0.1 to 1 µM.
Under `COc1cncc2nc(-c3ccncc3)nc(N3CC[C@H](O)C3)c12` [Example 50, (3S)-1-[5-methoxy-2-(pyridin-4-yl)-pyrido[3,4-d]-pyrimidin-4-yl]-pyrrolidin-3-ol] stands 10 to 40 µM; under `CN1CCN(c2cccc(Nc3cc(-c4nc(N5CC[C@@H](CO)C5)c5c(C6CC6)cncc5n4)ccn3)c2)CC1` [Example 721, [(R)-1-(5-Cyclopropyl-2-{2-[3-(4-methyl-piperazin-1-yl)-phenylamino]-pyridin-4-yl}-pyrido[3,4-d]pyrimidin-4-yl)-pyrrolidin-3-yl]-methanol], less than 0.1 µM.
Under `COc1cncc2nc(-c3ccncc3)nc(N3CCC(N)(C(N)=O)C3)c12` (stereo not shown) [Example 152, 3-Amino-1-(5-methoxy-2-pyridin-4-yl-pyrido[3,4-d]pyrimidin-4-yl)-pyrrolidine-3-carboxylic acid amide] stands 1 to 10 µM.
For `c1ccc2oc(Nc3cc(-c4nc(N5CCNCC5)c5c(C6CC6)cncc5n4)ccn3)nc2c1` [Example 2044, Benzooxazol-2-yl-[4-(5-cyclopropyl-4-piperazin-1-yl-pyrido[3,4-d]pyrimidin-2-yl)-pyridin-2-yl]-amine], the IC50 is less than 0.1 µM.
For the compound `FC(F)(F)C1(c2cc3c(-c4nc(N5CCNCC5)c5c(C6CC6)cncc5n4)ccnc3[nH]2)CCC1` [Example 2207, 5-Cyclopropyl-4-piperazin-1-yl-2-[2-(1-trifluoromethyl-cyclobutyl)-1H-pyrrolo[2,3-b]pyridin-4-yl]-pyrido[3,4-d]pyrimidine], the IC50 is less than 0.1 µM.
On to `COc1cncc2nc(-c3ccncc3)nc(N3CCN[C@@H](C)C3)c12` [Example 44, (3S)-1-[5-methoxy-2-(pyridin-4-yl)-pyrido[3,4-d]-pyrimidin-4-yl]-3-methylpiperazine], for which the half-inhibitory concentration (IC50) was 0.1 to 1 µM.
On to `Cc1ccc(C)c(Nc2cc(-c3nc(N4CCNCC4)c4c(C5CC5)cncc4n3)ccn2)c1` [Example 505, [4-(5-Cyclopropyl-4-piperazin-1-yl-pyrido[3,4-d]pyrimidin-2-yl)-pyridin-2-yl]-(2,5-dimethyl-phenyl)-amine], for which the half-inhibitory concentration (IC50) was less than 0.1 µM.
For the compound `N[C@H](CNc1nc(-c2ccncc2)nc2c(-c3cccc(-c4cccc(Cl)c4)c3)nccc12)Cc1ccccc1` [Example 106, N-[(2S)-2-amino-3-phenylpropyl]-8-[3-(3-chloro-phenyl)-phenyl]-2-(pyridin-4-yl)pyrido[3,4-d]pyrimidin-4-amine], the IC50 lay within 1 to 10 µM.
Consider `COc1cc(N2CCOCC2)ccc1Nc1cc(-c2nc(N3CCNCC3)c3c(OC)cncc3n2)ccn1` [Example 359, (2-Methoxy-4-morpholin-4-yl-phenyl)-[4-(5-methoxy-4-piperazin-1-yl-pyrido[3,4-d]pyrimidin-2-yl)-pyridin-2-yl]-amine], for which the half-maximal inhibitory concentration (IC50) lay within 0.1 to 1 µM.
As for `CN(c1nc(-c2ccnc(Nc3c(F)cccc3F)c2)nc2cncc(C3CC3)c12)[C@@H]1CCNC1` [Example 2057, {5-Cyclopropyl-2-[2-(2,6-difluoro-phenylamino)-pyridin-4-yl]-pyrido[3,4-d]pyrimidin-4-yl}-methyl-(R)-pyrrolidin-3-yl-amine], the half-inhibitory concentration (IC50) is less than 0.1 µM.
`Nc1ccccc1C(=O)Nc1cc(-c2nc(N[C@@H]3CCNC3)c3ccncc3n2)ccn1` [Example 303, 2-Amino-N-{4-[4-((R)-pyrrolidin-3-ylamino)-pyrido[3,4-d]pyrimidin-2-yl]-pyridin-2-yl}-benzamide]: the concentration for half-maximal inhibition (IC50) lay within 0.1 to 1 µM.
Under `COc1ccc(Nc2cc(-c3nc(N4CCNCC4)c4c(C5CC5)cncc4n3)ccn2)cn1` [Example 547, [4-(5-Cyclopropyl-4-piperazin-1-yl-pyrido[3,4-d]pyrimidin-2-yl)-pyridin-2-yl]-(6-methoxy-pyridin-3-yl)-amine] stands less than 0.1 µM; under `C[C@@H](Nc1cc(-c2nc(N3CCNCC3)c3c(C4CCC4)cncc3n2)ccn1)c1ccccc1F` [Example 2161, [4-(5-Cyclobutyl-4-piperazin-1-yl-pyrido[3,4-d]pyrimidin-2-yl)-pyridin-2-yl]-[(R)-1-(2-fluoro-phenyl)-ethyl]-amine], less than 0.1 µM; under `COc1cncc2nc(-c3ccnc(NC(=O)Cc4cccc(Cl)c4)c3)nc(N3CCN(C)CC3)c12` [Example 398, 2-(3-Chloro-phenyl)-N-{4-[5-methoxy-4-(4-methyl-piperazin-1-yl)-pyrido[3,4-d]pyrimidin-2-yl]-pyridin-2-yl}-acetamide], 0.1 to 1 µM.
As for `c1cc(Nc2cc(-c3nc(N4CCNCC4)c4c(C5CC5)cncc4n3)ccn2)c2nonc2c1` [Example 2104, Benzo[1,2,5]oxadiazol-4-yl-[4-(5-cyclopropyl-4-piperazin-1-yl-pyrido[3,4-d]pyrimidin-2-yl)-pyridin-2-yl]-amine], the figure is less than 0.1 µM.
